Results reported in US11634452B2, “Compounds for treating neurodegenerative disorders” (ETHNODYNE, priority 2017, dated 2023).
Several values for one entry are separate records, joined by “and”; a condition that tells them apart may be missing. Identical values can stand only once.

How the values were obtained:
Assay type in all cases: cell-based
[1] = tested on: primary rat dopaminergic neurons (TH positive neurons) injured with 6-OHDA; test: Neuroprotective effect following exposure to 6-OHDA, with or without pathway inhibitors; conditions: 6-OHDA 20 μM, 48 h, no compound
Experimental: This study investigated the mode of action of CR777 on rat primary mesencephalic cultures following exposure to 6-OHDA. The effect of CR777 on level of GDNF and BDNF mRNA was investigated after 24 h 6-OHDA incubation and CR777. The main pathways of survival, regulation of the apoptosis and neuronal growth were investigated in presence of CR777 and inhibitors of these different pathways. The following pathways were investigated using antagonists of different proteins of interest: • RAS (small GTPase)/RAF (proto-oncogene Serine/threonine kinase); • Peroxisome proliferator-activated receptor gamma (PPAR-γ) (nuclear receptor) • The Pi3K/AKT/mTor (cell signaling pathway that plays a key role in cellular homeostasis through its role in regulation of apoptosis, cell growth, cell cycle). • NO (nitric oxide) pathway
Rat dopaminergic neurons were cultured as described in Example 4.
On day 6 of culture, the medium was removed and fresh medium was added, without or with 6-OHDA (Sigma, Batch: 083M4624V) at 20 μM diluted in control medium and let for 48 h. In parallel, all inhibitors were solved in culture medium and were added 2 h before the 6-OHDA application (namely 1 h before test compounds application).
CR777 was solved in DMSO at 10 mM, diluted in culture medium and then pre-incubated with mesencephalic neurons 1 hour before the 6-OHDA application (48 h). 6 wells per condition were assessed.
For survival and α-syn aggregation, compound was tested on 1 culture in a 96 well-plate (6 wells per condition), was pre-incubated 1 hour before 6-OHDA and let for 48 hours.
The following conditions were assessed: • Control (culture medium) • +6-OHDA (20 μM, 48 h) • +6-OHDA (20 μM, 48 h)+CR777 1 μM • +6-OHDA (20 μM, 48 h)+CR777 100 nM • +6-OHDA (20 μM, 48 h)+CR777 10 nM • +6-OHDA (20 μM, 48 h)+CR777 1 nM
For pathway investigation, the compound was tested on one primary dopaminergic culture in 96 well plates (6 wells per conditions).
Inhibitors were pre-incubated for 2 hours before 6-OHDA application and CR777 was pre-incubated 1 hour before 6-OHDA application.
The antagonists/inhibitors used in the experiments are the following: • FTS: farnesylthiosalicylic acid selectively disrupts the association of chronically active Ras proteins with the plasma membrane. • BEZ-235: dual PI3K/mTOR inhibitor. • T0070907: selective PPAR-γ antagonist • L-NAME (Nitro-L-arginine methyl ester): precursor to NOS inhibitor, L-NNA—requires bioactivation to become a fully functional inhibitor. • ABT-199: selective inhibitor of Bcl-2.
48 hours after intoxication, the cell culture supernatant was taken off and the dopaminergic neurons were fixed by a solution of 4% paraformaldehyde in PBS, pH=7.3 for 20 min at room temperature.
After permeabilization with 0.1% of saponin, cells were incubated for 2 hours with:
monoclonal Anti-Tyrosine Hydroxylase (TH) antibody produced in mouse at dilution of 1/10000 in PBS containing 1% FCS, 0.1% saponin,
polyclonal anti-α-syn antibody produced in rabbit at dilution of 1/200 for 2 h at room temperature.
For each condition, 20 pictures/well (representative of ˜the all well area) were automatically taken using ImageXpress (Molecular Devices) with 10× magnification. All images were taken with the same conditions. Analysis were automatically performed by using Custom Module Editor (Molecular Devices).
The following endpoint was investigated for each culture well: • The total dopaminergic neuron survival (TH staining), • The total area of α-syn on TH positive neuron (overlapping α-syn/TH)
After permeabilization with 0.1% of saponin, cells were incubated for 2 hours with monoclonal Anti-Tyrosine Hydroxylase (TH) antibody produced in mouse at dilution of 1/10000 in PBS containing 1% FCS, 0.1% saponin, for 2 h at room temperature.
The total dopaminergic neuron survival (TH staining) was investigated for each culture well.

[2] = tested on: primary rat motor neurons injured with glutamate; test: Primary motor neuron culture survival after glutamate exposure (in vitro ALS model); conditions: glutamate 5 μM for 20 min, no compound
Experimental: The aim of this study was to study the effect of CR777 on primary motor neuron culture from rat spinal cord (SC) injured by glutamate exposure (a well validated in vitro ALS model and model of motor neuron diseases).
Rat SC motor neurons were cultured as described by Martinou et al., Neuron. 1992 April; 8(4):737-44 and Wang et al., Hum Mol Genet. 2013 Dec. 1; 22(23):4706-19. Briefly, pregnant female rats (Wistar, Janvier labs) of 14 days gestation were killed by cervical dislocation. […] Cells were then centrifuged at 180 g for 10 min at +4° C. on a layer of BSA (3.5%) in L15 medium. […] The medium was changed every day.
The following conditions were assessed: • Control • + glutamate (5 μM 20 mn then 48 h) • + glutamate (5 μM 20 mn then 48 h)+CR777 1 pmol/L • + glutamate (5 μM 20 mn then 48 h)+CR777 10 pmol/L • + glutamate (5 μM 20 mn then 48 h)+CR777 100 pmol/L • + glutamate (5 μM 20 mn then 48 h)+CR777 1 nmol/L • + glutamate (5 μM 20 mn then 48 h)+CR777 10 nmol/L • + glutamate (5 μM 20 mn then 48 h)+CR777 100 nmol/L • + glutamate (5 μM 20 mn then 48 h)+CR777 1 μmol/L • + glutamate (5 μM 20 mn then 48 h)+CR777 10 μmol/L […]
For each condition, 6 wells were assessed, 30 pictures per well were taken using ImageXpress (Molecular Devices) with 20× magnification, to assess motor neuron survival (MAP-2). […]

[3] = tested on: primary rat cortical neurons injured with glutamate; test: Effect in rat primary cortical neurons after glutamate injury; conditions: glutamate 40 μM, 20 min, no compound
Experimental: A., et al., 1999. J Neurosci 19: 2455-2463 and Callizot.
The medium was changed every 2 days. The cortical neurons were intoxicated with glutamate solution.
The following conditions were assessed: • Control (culture medium) • + glutamate (40 μM, 20 min) • + glutamate (40 μM, 20 min)+CR777 (at each concentration)

[4] = tested on: primary rat dopaminergic neurons (TH positive neurons) injured with MPP+; test: Neuroprotective effect following exposure to MPP+; conditions: MPP+ 4 μM, 48 h, no compound
Experimental: This study investigated the neuroprotective effect of the Compound CR777 of example 1 on rat primary mesencephalic cultures following exposure to 1-methyl-4-phenyl pyridinium (MPP^+).
Rat dopaminergic neurons were cultured as described by Visanji et al., 2008 FASEB J. 2008; 22(7):2488-97. Briefly, the midbrains obtained from 15-day old rat embryos (Janvier Labs, France) were dissected under a microscope. The embryonic midbrains were removed and placed in ice-cold medium of Leibovitz (L15, Batch 4290114, Pan Biotech, Germany) containing 2% of Penicillin-Streptomycin (PS, Batch 1451013, Pan Biotech) and 1% of bovine serum albumin (BSA, Batch K030913, Pan Biotech). The ventral portion of the mesencephalic flexure, a region of the developing brain rich in dopaminergic neurons, was used for the cell preparations.
The midbrains were dissociated by trypsinisation for 20 min at 37° C. […] The cells were seeded in supplemented neurobasal medium at a density of 40 000 cells/well in 96 well-plates pre-coated with poly-L-lysine (Batch 3102256, Corning Biocoat) and maintained in a humidified incubator at 37° C. in 5% CO2/95% air atmosphere. Half of the medium was changed every 2 days with fresh medium.
On day 6 of culture, the medium was removed and fresh medium was added, without or with MPP+ at 4 μM diluted in control medium and let for 48 h. […]
The following conditions were assessed: (6 wells per condition) • Control (vehicle) • Compound CR777 of example 1 (1 pmol/L) • Compound CR777 of example 1 (10 pmol/L) • Compound CR777 of example 1 (100 pmol/L) • Compound CR777 of example 1 (1 nmol/L) • Compound CR777 of example 1 (10 nmol/L) • Compound CR777 of example 1 (100 nmol/L) • Compound CR777 of example 1 (1 μmol/L) • Compound CR777 of example 1 (10 μmol/L) […]
Data were expressed in percentage of control conditions (no injury, no compound=100%). All values were expressed as mean+/−SEM (standard error mean) of the 6 wells with statistical analyses on the different conditions (ANOVA followed by Dunnett's test when allowed, using GraphPad Prism software).

[5] = tested on: primary rat cortical neurons injured with Aβ1-42; test: Neuroprotective effect on an in vitro model of Alzheimer disease; conditions: Aβ1-42 20 μM, 24 h, no compound
Experimental: These peptides contribute to cerebrovascular lesions and are neurotoxic. This study investigated the neuroprotective effect of the plant extract of the invention on rat primary cortical cultures following exposure to Aβ1-42 in an in vitro AD model (Callizot. N., et al., 2013).
Rat cortical neurons were cultured as described in Example 6.
The cortical neurons were intoxicated with amyloid beta peptides solutions after 11 days of culture in presence of tested compound CR777.
Briefly, Aβ1-42 peptide (Batch: APN09080-1-1, Abcam, United Kingdom) was dissolved in the defined culture medium B27 mentioned above, devoid of serum, at an initial concentration of 40 μmol/L. This solution was gently agitated for 3 days at 37° C. in the dark and immediately used after being properly diluted in culture medium to the concentrations used (20 μM corresponding to 2 μM of AβO, measuring by WB, for survival, neurite network, tau phosphor and caspase 3 activation and 2.5 μM corresponding to 0.25 μM of AβO, for synapses evaluation).
CR777 was solved in DMSO at 10 mM and diluted in culture medium at different concentrations (see table below). The compound was tested on one primary cortical culture in 96 well plates (6 wells per conditions), and was pre-incubated 1 hour before Aβ1-42 application for 24 hours.
24 hours after intoxication, the cell culture supernatant was taken off and the cortical neurons were fixed by a cold solution of ethanol (95%) and acetic acid (5%) for 5 min at −20° C. • Plate 1: Immunostainning (MAP-2/Tau Phosphor)
After permeabilization with 0.1% of saponin, cells were incubated for 2 hours with a) a mouse monoclonal antibody anti phosphoT at dilution of 1/400 in PBS containing 1% fetal calf serum and 0.1% of saponin and b) a chicken polyclonal antibody anti microtubule-associated-protein 2 (MAP-2) at dilution of 1/1000 in PBS containing 1% fetal calf serum and 0.1% of saponin (this antibody stains specifically cell bodies and neurites, allowing study of neuronal cell survival and neurite network).
(§1) For each condition, 30 pictures/well (representative of ˜the all well area) were taken automatically using ImageXpress (Molecular Devices) with 20× magnification. All images were taken with the same conditions. Analysis were performed automatically by using Custom Module Editor (Molecular Devices).
The following endpoints were investigated per culture well: • The total neuron survival (MAP-2 staining), • The neurite network (MAP-2 staining) and • hyperphophorylation of T protein (pT) into neurons (pT/MAP-2). • Plate 2: Immunostainning (MAP-2/Caspase 3)
as §1, with “Devices). • The total number of caspase 3 positive neuron (overlapping caspase3/MAP-2) were investigated per culture well:” for “Devices).”
Data is expressed in percentage of control conditions (no injury, no compound=100%). All values are expressed as mean+/−SEM (standard error of the mean) from 6 wells per condition per culture. Neuro-Sys performed graphs and statistical analyses on the different conditions (ANOVA followed by Dunnett's test when allowed, using GraphPad Prism software version 5.0).

## NCCc1cc(O)c(O)cc1O [Compound 6-OHDA, reference compound]
[1]
  TH positive neuronal death induced by the toxin: ~30%
  loss of the neurite network induced by the toxin: ~35% and ~40%
  α-syn aggregation inside TH neuron cytoplasm induced by the toxin: large and significant α-syn aggregation

## N[C@@H](CCC(=O)O)C(=O)O [Glutamate, glutamate, reference compound]
[2]
  motor neuron death induced by glutamate: > 30%
[3]
  neurite network loss induced by glutamate: neurite network loss
  neuronal death induced by glutamate: significant neuronal death

## C[n+]1ccc(-c2ccccc2)cc1 [MPP+, 1-methyl-4-phenyl pyridinium, reference compound]
[4]
  TH positive neuron cell death induced by the toxin: > 35%

## Amyloid beta peptide 1-42 [Aβ, reference compound]
[5]
  caspase 3 activation induced by Aβ: activation of caspase 3
  hyperphosphorylation of tau induced by Aβ: increase of the hyperphosphorylation of tau
  neurite network loss induced by Aβ: ~40%
